# What was measured:
# Type in all cases: functional
# SUD4 [1] = test: Growth inhibition of human SU-DHL-4 cells at 0.003 uM incubated for 3 days (reference value: 2%); settings: SU-DHL-4, 72 h, time 3 day, read-out: GI
# SUD4 [2] = test: Growth inhibition of human SU-DHL-4 cells at 0.33 uM incubated for 3 days (reference value: 2%); settings: SU-DHL-4, 72 h, time 3 day, read-out: GI
# OCI-Ly10 [3] = test: Growth inhibition of human OCILY10 cells at 1.7 uM incubated for 3 days (Rvb= -3%); settings: OCI-Ly10, 72 h, time 3 day, read-out: GI
# OCI-Ly10 [4] = test: Growth inhibition of human OCILY10 cells at 0.017 uM incubated for 3 days (Rvb= -3%); settings: OCI-Ly10, 72 h, time 3 day, read-out: GI
# SUD4 [5] = test: Growth inhibition of human SU-DHL-4 cells at 0.033 uM incubated for 3 days (reference value: 2%); settings: SU-DHL-4, 72 h, time 3 day, read-out: GI
# OCI-Ly10 [6] = test: Growth inhibition of human OCILY10 cells at 0.003 uM incubated for 3 days (reference value: -2%); settings: OCI-Ly10, 72 h, time 3 day, read-out: GI
# SUD4 [7] = test: Growth inhibition of human SU-DHL-4 cells at 0.033 uM incubated for 3 days (reference value: -1%); settings: SU-DHL-4, 72 h, time 3 day, read-out: GI
# SUD4 [8] = test: Growth inhibition of human SU-DHL-4 cells at 0.33 uM incubated for 3 days (reference value: -1%); settings: SU-DHL-4, 72 h, time 3 day, read-out: GI
# OCI-Ly10 [9] = test: Growth inhibition of human OCILY10 cells at 0.033 uM incubated for 3 days (reference value: -2%); settings: OCI-Ly10, 72 h, time 3 day, read-out: GI
# SUD4 [10] = test: Growth inhibition of human SU-DHL-4 cells at 0.017 uM incubated for 3 days (reference value: 2%); settings: SU-DHL-4, 72 h, time 3 day, read-out: GI
# SUD4 [11] = test: Growth inhibition of human SU-DHL-4 cells at 0.003 uM incubated for 3 days (reference value: -1%); settings: SU-DHL-4, 72 h, time 3 day, read-out: GI
# OCI-Ly10 [12] = test: Growth inhibition of human OCILY10 cells at 0.017 uM incubated for 3 days (reference value: -2%); settings: OCI-Ly10, 72 h, time 3 day, read-out: GI
# OCI-Ly10 [13] = test: Growth inhibition of human OCILY10 cells at 0.033 uM incubated for 3 days (Rvb= -3%); settings: OCI-Ly10, 72 h, time 3 day, read-out: GI
# OCI-Ly10 [14] = test: Growth inhibition of human OCILY10 cells at 0.33 uM incubated for 3 days (reference value: -2%); settings: OCI-Ly10, 72 h, time 3 day, read-out: GI
# SUD4 [15] = test: Growth inhibition of human SU-DHL-4 cells at 0.17 uM incubated for 3 days (reference value: -1%); settings: SU-DHL-4, 72 h, time 3 day, read-out: GI
# SUD4 [16] = test: Growth inhibition of human SU-DHL-4 cells at 0.017 uM incubated for 3 days (reference value: -1%); settings: SU-DHL-4, 72 h, time 3 day, read-out: GI
# OCI-Ly10 [17] = test: Growth inhibition of human OCILY10 cells at 3.3 uM incubated for 3 days (Rvb= -3%); settings: OCI-Ly10, 72 h, time 3 day, read-out: GI
# SUD4 [18] = test: Growth inhibition of human SU-DHL-4 cells at 0.17 uM incubated for 3 days (reference value: 2%); settings: SU-DHL-4, 72 h, time 3 day, read-out: GI
# OCI-Ly10 [19] = test: Growth inhibition of human OCILY10 cells at 0.003 uM incubated for 3 days (Rvb= -3%); settings: OCI-Ly10, 72 h, time 3 day, read-out: GI
# OCI-Ly10 [20] = test: Growth inhibition of human OCILY10 cells at 0.17 uM incubated for 3 days (Rvb= -2%); settings: OCI-Ly10, 72 h, time 3 day, read-out: GI
smiles,measurement,setting,value
CC#CC(=O)N1CCC[C@H]1c1nc(-c2ccc(C(=O)Nc3ccccn3)cc2)c2c(N)nccn12 [ACALABRUTINIB],inhibition of growth at 0.003 µM,SUD4 [1],2%
same,inhibition of growth at 0.33 µM,SUD4 [2],2%
same,inhibition of growth at 1.7 µM,OCI-Ly10 [3],108%
same,inhibition of growth at 0.017 µM,OCI-Ly10 [4],71%
same,inhibition of growth at 0.033 µM,SUD4 [5],2%
same,inhibition of growth at 0.003 µM,OCI-Ly10 [6],16%
same,inhibition of growth at 0.033 µM,SUD4 [7],-3%
same,inhibition of growth at 0.33 µM,SUD4 [8],-1%
same,inhibition of growth at 0.033 µM,OCI-Ly10 [9],92%
same,inhibition of growth at 0.017 µM,SUD4 [10],2%
same,inhibition of growth at 0.003 µM,SUD4 [11],-1%
same,inhibition of growth at 0.017 µM,OCI-Ly10 [12],77%
same,inhibition of growth at 0.033 µM,OCI-Ly10 [13],88%
same,inhibition of growth at 0.33 µM,OCI-Ly10 [14],115%
same,inhibition of growth at 0.17 µM,SUD4 [15],-3%
same,inhibition of growth at 0.017 µM,SUD4 [16],-1%
same,inhibition of growth at 3.3 µM,OCI-Ly10 [17],113%
same,inhibition of growth at 0.17 µM,SUD4 [18],2%
same,inhibition of growth at 0.003 µM,OCI-Ly10 [19],13%
same,inhibition of growth at 0.17 µM,OCI-Ly10 [20],111%

# Reference: ChEMBL document CHEMBL5244269, “Improving metabolic stability and removing aldehyde oxidase liability in a 5-azaquinazoline series of IRAK4 inhibitors” (Bioorg Med Chem, 2020)
